For twelve molecules, TGI and GI50 results are on record in PubChem BioAssay (NCI).

“And” between values parts separate entries of the source, which are not always exact repeats. Equal entries are not always repeated.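 Following 48 hours of exposure in 96-well plates, responses at five concentrations were used to interpolate endpoints linearly. The concentration for 50% growth inhibition is given as GI50. At the TGI there is no net growth.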

Test systems include M19-MEL melanoma; NCI-H522 lung; ACHN renal; SF-268 CNS; M14 melanoma; SNB-78 CNS; HCT-15 colon; HOP-62 NSCLC; NCI/ADR-RES ovarian; MCF7 breast.
Common to all, as to assay: NCI tumour cell line growth inhibition, 48 h

For the molecule `CNC(=O)OCc1cc2ccncc2c2c1[nH]c1ccccc12`, the TGI in the test on M19-MEL melanoma was more than 100 µM; in the test with NCI-H522 lung, more than 100 µM; in the test on ACHN renal, more than 100 µM; with SF-268 CNS, more than 41.8 µM; in the test on M14 melanoma, more than 100 µM; in the test on SNB-78 CNS, more than 100 µM. Also, the TGI is more than 100 µM in the test on HCT-15 colon and 55 µM in the test with HOP-62 NSCLC.

Regarding `CCCCCCCCCCNC(=S)OCCCC`, the TGI in the test with M19-MEL melanoma was more than 100 µM; in the test with NCI-H522 lung it was 42.4 µM; with ACHN renal, 69.3 µM; in the test on SF-268 CNS, 58.7 µM; in the test with M14 melanoma, 52.4 µM; with SNB-78 CNS, 88.4 µM. Further, the TGI was determined as 39.7 µM with HCT-15 colon and 68.7 µM in the test with HOP-62 NSCLC.

For the molecule `CCOC(=O)/C(=C/c1ccc(Cl)cc1)N(CC)CC`, the TGI in the test with M19-MEL melanoma, with NCI-H522 lung, in the test with ACHN renal, in the test on SF-268 CNS, with M14 melanoma and in the test with SNB-78 CNS was more than 100 µM throughout. Moreover, the TGI in the test on HCT-15 colon and in the test with HOP-62 NSCLC was more than 100 µM each time.

For `C=C(CN(C)C)C(=O)c1ccc(OC)cc1`, the TGI in the test with M19-MEL melanoma came to 7.52 µM; with ACHN renal it was 3.01 µM; with SF-268 CNS, 50.5 µM; in the test on M14 melanoma, 5.66 µM; in the test with NCI/ADR-RES ovarian it was 34.2 µM; with SNB-78 CNS, 7.83 µM. In addition, the TGI amounted to 5.96 µM in the test on HCT-15 colon, 51.9 µM with HOP-62 NSCLC and 21.4 µM in the test on MCF7 breast.

Regarding `CCC[CH2][Ge]([CH2]CCC)([CH2]CCC)[O]C(=O)C(OC(C)=O)c1ccccc1` (configuration not stated), the GI50 was 5.13 µM in the test with M19-MEL melanoma; 0.304 µM in the test with NCI-H522 lung; 2.76 µM with ACHN renal; 1.46 µM in the test on SF-268 CNS; 1.05 µM in the test on M14 melanoma; 2.99 µM in the test with SNB-78 CNS. The GI50 with HCT-15 colon is 1.73 µM; in the test with HOP-62 NSCLC, 2.18 µM. The TGI with M19-MEL melanoma was determined as 20.3 µM; with NCI-H522 lung, 8.88 µM; with ACHN renal, 19.8 µM; in the test on SF-268 CNS it was 27.8 µM; in the test on M14 melanoma, 6.57 µM; with SNB-78 CNS, 24.7 µM. Further, the TGI in the test on HCT-15 colon is 14.5 µM; in the test on HOP-62 NSCLC, 16.1 µM.

For `O=C(NCCCCCCNC(=O)NC1OCC(O)C(O)C1O)NC1OCC(O)C(O)C1O` (configuration not stated), the TGI in the test on M19-MEL melanoma, in the test with NCI-H522 lung, with ACHN renal, in the test with SF-268 CNS, with M14 melanoma and in the test with SNB-78 CNS was more than 100 µM throughout. Further, the TGI in the test on HCT-15 colon and in the test on HOP-62 NSCLC was more than 100 µM throughout.

For `C[CH2][Sn]([Cl])([CH2]C)[CH2]C`, the GI50 with M19-MEL melanoma is 2.06 µM; in the test on NCI-H522 lung it was 0.705 µM; with ACHN renal it was 1.46 µM; in the test on SF-268 CNS, 1.59 µM; in the test with M14 melanoma it was 1.27 µM; in the test with SNB-78 CNS it was 0.922 µM. Besides, the GI50 in the test with HCT-15 colon is 0.637 µM; in the test with HOP-62 NSCLC, 1.04 µM. In addition, the TGI worked out at 11.4 µM in the test with M19-MEL melanoma; 3.15 µM with NCI-H522 lung; 8.27 µM with ACHN renal; 7.94 µM in the test with SF-268 CNS; 5.46 µM with M14 melanoma; 5.04 µM with SNB-78 CNS. For the same molecule, the TGI in the test with HCT-15 colon was 5.79 µM; with HOP-62 NSCLC, 4.14 µM.

Regarding `N#CC(C#N)=Cc1ccc(Oc2ccccc2)cc1`, the TGI in the test with M19-MEL melanoma was more than 64.8 µM; in the test with NCI-H522 lung, 61.6 µM; in the test on ACHN renal, more than 31.6 µM; with SF-268 CNS, more than 69.5 µM; with M14 melanoma, 47.2 µM; in the test on SNB-78 CNS, more than 90.8 µM. In addition, the TGI in the test on HCT-15 colon and in the test on HOP-62 NSCLC was more than 100 µM each time.

In the case of `CN1CCN(CCCN2c3ccccc3Sc3ccc(C(F)(F)F)cc32)CC1`, the TGI in the test with M19-MEL melanoma was 3.75 µM; in the test with NCI-H522 lung it was 3.5 µM and 17.8 µM and 26.1 µM; in the test on ACHN renal it was 4.67 µM and 23.3 µM and 24.7 µM; in the test with SF-268 CNS, 14.3 µM and 25.4 µM and 26.2 µM; in the test with M14 melanoma it was 3.53 µM and 3.38 µM and 3.35 µM; with NCI/ADR-RES ovarian, 4.61 µM and 25 µM and 25.5 µM. Besides, the TGI with SNB-78 CNS was 32.1 µM; in the test with HCT-15 colon it was 6.57 µM and 17.3 µM and 21.3 µM; in the test on HOP-62 NSCLC it was 3.94 µM and 24.9 µM and 26.5 µM; with MCF7 breast, 3.29 µM and 18.7 µM. Moreover, the GI50 with NCI-H522 lung was 1.87 µM and 4.05 µM and 13 µM; in the test with ACHN renal it was 2.1 µM; in the test on SF-268 CNS it was 3.72 µM; in the test on NCI/ADR-RES ovarian, 1.91 µM; in the test with HCT-15 colon, 2.43 µM; in the test with HOP-62 NSCLC it was 1.73 µM. Moreover, the GI50 in the test with MCF7 breast is 1.77 µM.

For the molecule `O=c1[nH]c(=O)n(C2OC(CO)C(O)C2O)cc1OCc1ccccc1` (configuration not stated), the TGI in the test with M19-MEL melanoma, in the test with NCI-H522 lung, in the test on ACHN renal, with SF-268 CNS, in the test on M14 melanoma and with SNB-78 CNS was more than 100 µM each time. The results for the TGI with HCT-15 colon and with HOP-62 NSCLC were more than 77.7 µM and more than 100 µM, respectively.

`O=[N+]([O-])c1cc([N+](=O)[O-])c(C(Cl)C(Cl)c2ccccc2)cc1C(Cl)C(Cl)c1ccccc1` (configuration not stated): the TGI with M19-MEL melanoma was 3.62 µM; with NCI-H522 lung, 3.39 µM; with ACHN renal, 3.55 µM; with SF-268 CNS, 4.02 µM; in the test with M14 melanoma, 2.93 µM; in the test on SNB-78 CNS, 9.72 µM. Further, the TGI is 3.12 µM with HCT-15 colon and 11.9 µM in the test with HOP-62 NSCLC.

For the molecule `CC(C)N(C(=O)C12C3C4C5C3C1(C#N)C5C42)C(C)C` (configuration not stated), the TGI with M19-MEL melanoma, in the test on NCI-H522 lung, in the test on ACHN renal, in the test on SF-268 CNS, with M14 melanoma and with SNB-78 CNS was more than 100 µM in each case. Besides, the TGI with HCT-15 colon and in the test with HOP-62 NSCLC was more than 100 µM each time.
